In US10376476B2, “Panicein compounds, compositions and uses thereof” (CENTRE NATIONAL DE LA RECHERCHE SCIENTIFIQUE, priority 2014, dated 2019):

Tests used:
A375 cells = assay: Screening test 2: doxorubicin cytotoxicity, neutral red cell viability; assay type: cell-based; conditions: 24 hours; for increase of cell mortality induced by dxr (dxr cytotoxicity enhancement): A375, paniceins 10 μM, dxr 1.5 μM
Method: (§1) Cells were grown in 96 well plates in complete DMEM medium to achieve 60% to 70% confluence. Medium was then removed and replaced with 100 μL/well of complete DMEM medium containing paniceins at 10 μM (or at increasing concentrations for EC50 measurement) or DMSO as control. After 2 hours, 100 μL of complete DMEM medium containing doxorubicin was added in half wells to obtain the final concentration of 2 μM for MDA-MB-435 and MeWo, and 1.5 μM for A375. The cell viability was measured after 24 hours. Effect of compounds P2, P3, P4 and P5 on cell viability, and dose-response for compound P5 are shown for MDA-MB-435 (A), MeWo (B) and A375 (C). D. Enhancement of dxr cytotoxicity by paniceins is represented. The means (+/−sem) of at least three independent experiments are reported.
(§2) Melanoma cells MDA-MB-435, Mewo and A375 were seeded on 96-well plates and grown 48 hours in complete DMEM medium to achieve 60% to 70% confluence. Medium was then removed and replaced with 100 μL/well of complete DMEM medium containing the compounds of interest at defined concentration or DMSO as control. After 2 hours, 100 µL of complete DMEM medium containing doxorubicin was added in half wells to obtain 2 μM doxorubicin. Plates were incubated at 37° C. in a 5% CO2/95% air water-saturated atmosphere. After 24 hours, microplates were incubated 3 hours at 37° C. with 100 μL/wells neutral red (NR) solution (50 μg/mL in DMEM). After a rapid wash with PBS at 4° C., microplates were gently tapped several times on absorbent paper. Cells were solubilized with 100 μL of a solution containing 1% acetic acid, 49% H2O, 50% ethanol by vortexing 3 minutes at 700 rpm and the absorbance at 600 nm was measured. EC50 were calculated using Regressi software.

MDA-MB-435 cells = assay: as above; assay type: cell-based; conditions: 24 hours; for increase of cell mortality induced by dxr (dxr cytotoxicity enhancement): MDA-MB-435, paniceins 10 μM, dxr 2 μM
Method: as §1, §2

MeWo cells = assay: as above; assay type: cell-based; conditions: dxr 2 μM, 24 hours; for increase of cell mortality induced by dxr (dxr cytotoxicity enhancement): paniceins 10 μM
Method: as §1, §2

control yeasts = assay: Doxorubicin efflux from yeasts (intracellular dxr fluorescence); assay type: cell-based, Saccharomyces cerevisiae; conditions: 10 μM paniceins, 10 min, 5 mM 2-deoxy-D-glucose
Method: A. Compound P5 inhibits doxorubicin efflux from melanoma cells MeWo and A375. Cells were grown on cover-slips, incubated for 2 hour at 37° C. with 10 μM doxorubicin and quickly rinsed with phosphate buffer (pH 7.4). One cover-slip of each cell line was immediately fixed for doxorubicin charge control. The other cover-slips were incubated with buffer supplemented with DMSO or 10 μM of compound P5 30 min under gentle shaking and immediately fixed. Dxr intracellular fluorescence was visualized by epifluorescence and analyzed using Image J software on more than 30 cells of 3 different fields for each condition. The results were analyzed using the Student t test in which significance is attained at P<0.05 (**: P<0.005, ***: P<0.0005). B. Paniceins inhibit doxorubicin efflux from Patched-expressing yeasts. Yeasts expressing wild-type Patched (hPtc, in black), mutant Patched G509VD513Y (hPtcVXXXY, in grey), and control yeasts (in white) were incubated in buffer supplemented with 5 mM of 2-deoxy-D-glucose and 10 μM dxr for 2 hours at 4° C. After centrifugation and supernatant removing, one sample was immediately fixed for charge control and the other samples were resuspended in buffer containing 5 mM of 2-deoxy-D-glucose supplemented with DMSO or 10 μM of paniceins 10 minutes at 25° C. with gentle shaking. After centrifugation and supernatant removing, samples were fixed and deposited on coverslips for epifluorescence microscopy observation. Dxr intracellular fluorescence quantification was carried out using Image J software on more than 30 yeasts on 3 different fields for each condition. The results were analyzed using the Student t test in which significance is attained at P<0.05 (*).
On yeasts: Yeasts expressing Patched (hPtc), mutant Patched (hPtcG509VD513Y), or control yeasts were washed with cold water, resuspended at an OD600 of 10 in Hepes-NaOH buffer (pH 7.0) supplemented with 5 mM of 2-deoxy-D-glucose, and incubated with 10 μM doxorubicin for 2 hours at 4° C. in the cold room on a rotating wheel protected from light. Yeasts were centrifuged and the supernatant was removed. One sample was immediately fixed with 4% paraformaldehyde for doxorubicin loading control. […] Quantification of doxorubicin intracellular fluorescence was carried out using Image J software on more than 30 yeasts on 3 different fields for each condition. The results were analyzed using the Student t test in which significance is attained at P <0.05.
In order to see if Paniceins inhibit dxr efflux through Patched inhibition, inventors compared dxr efflux on yeasts over-expressing human Patched and control yeasts. […] Dxr fluorescence intensity of at least 30 yeasts was measured for each experiment. FIGS. 6A and 12A show the mean fluorescence intensity of 3 independent experiments. […]

Row | SMILES | increase of cell mortality induced by dxr (dxr cytotoxicity enhancement) (A375 cells) | increase of cell mortality induced by dxr (dxr cytotoxicity enhancement) (MDA-MB-435 cells) | increase of cell mortality induced by dxr (dxr cytotoxicity enhancement) (MeWo cells) | Efflux (%) of dxr (control yeasts) | EC50 (A375 cells; Homo sapiens, A-375, A375, dxr 1.5 μM, read-out: concentration inducing 50% of dxr cytotoxicity enhancement (EC50)) | EC50 (MDA-MB-435 cells; Homo sapiens, MDA-MB-435, dxr 2 μM, read-out: concentration inducing 50% of dxr cytotoxicity enhancement (EC50)) | EC50 (MeWo cells; Homo sapiens, read-out: concentration inducing 50% of dxr cytotoxicity enhancement (EC50))
1 | C/C(=C\Cc1cc(O)ccc1O)CCc1c(C)c(O)c(O)c(C=O)c1C [P2, Panicein C] | no effect | about 2 times | about 2 times | 20% | – | – | –
2 | C/C(=C\Cc1cc(O)ccc1O)CCc1c(C)cc(O)c(C=O)c1C [P3, Panicein B3] | no effect | about 2 times | about 2 times | 25% | – | – | –
3 | Cc1cc(O)c(C=O)c(C)c1CCC1(C)C=Cc2cc(O)ccc2O1 (centres unmarked) [P4, Panicein B2] | no effect | about 2 times | about 2 times | 29% | – | – | –
4 | COc1cc(C)c(CC/C(C)=C/Cc2cc(O)ccc2O)c(C)c1C [P5, Panicein A hydroquinone] | about 2 times | – | – | 39% | 22.5 µM | 9.3 µM | 5 µM
